Legend:
[1] = biological target: T1, Platelet-derived growth factor receptor (Homo sapiens, UniProt P09619+P16234); assay: Inhibition of Platelet-derived growth factor receptor; assay type: protein-complex assay
[2] = biological target: T1, Platelet-derived growth factor receptor; assay: Inhibition of Platelet-derived growth factor receptor at 10 uM; assay type: protein-complex assay
HASMC = assay: Inhibition of mitogenesis in human aortic smooth muscle cells (HASMC); assay type: functional, cell-based
[3] = biological target: T1, Platelet-derived growth factor receptor; assay: Inhibition of Platelet-derived growth factor receptor at 1 uM; assay type: protein-complex assay
[4] = Bioavailability in rat after 1 day dosing; assay type: ADME, organism-based; conditions: in vivo
[5] = Bioavailability in rat after 4 day dosing; assay type: ADME, organism-based; conditions: in vivo
[6] = % Bioavailability after 4 day of the drug administration in rats; assay type: ADME, organism-based; conditions: rat, in vivo
[7] = biological target: cAMP-dependent protein kinase (PKA) (Homo sapiens) (UniProt P22694+P17612+P22612); assay: Inhibition of Protein kinase A at 100 uM; assay type: protein assay
[8] = biological target: c-Jun N-terminal kinase, JNK (Homo sapiens, UniProt P45983+P53779+P45984); assay: Inhibition of JNK, c-Jun N-terminal kinase; assay type: protein assay
[9] = biological target: T2, Tyrosine-protein kinase JAK3 (Homo sapiens, UniProt P52333); assay: Inhibition of Janus kinase 3
T2 sequence (P52333 whole entry): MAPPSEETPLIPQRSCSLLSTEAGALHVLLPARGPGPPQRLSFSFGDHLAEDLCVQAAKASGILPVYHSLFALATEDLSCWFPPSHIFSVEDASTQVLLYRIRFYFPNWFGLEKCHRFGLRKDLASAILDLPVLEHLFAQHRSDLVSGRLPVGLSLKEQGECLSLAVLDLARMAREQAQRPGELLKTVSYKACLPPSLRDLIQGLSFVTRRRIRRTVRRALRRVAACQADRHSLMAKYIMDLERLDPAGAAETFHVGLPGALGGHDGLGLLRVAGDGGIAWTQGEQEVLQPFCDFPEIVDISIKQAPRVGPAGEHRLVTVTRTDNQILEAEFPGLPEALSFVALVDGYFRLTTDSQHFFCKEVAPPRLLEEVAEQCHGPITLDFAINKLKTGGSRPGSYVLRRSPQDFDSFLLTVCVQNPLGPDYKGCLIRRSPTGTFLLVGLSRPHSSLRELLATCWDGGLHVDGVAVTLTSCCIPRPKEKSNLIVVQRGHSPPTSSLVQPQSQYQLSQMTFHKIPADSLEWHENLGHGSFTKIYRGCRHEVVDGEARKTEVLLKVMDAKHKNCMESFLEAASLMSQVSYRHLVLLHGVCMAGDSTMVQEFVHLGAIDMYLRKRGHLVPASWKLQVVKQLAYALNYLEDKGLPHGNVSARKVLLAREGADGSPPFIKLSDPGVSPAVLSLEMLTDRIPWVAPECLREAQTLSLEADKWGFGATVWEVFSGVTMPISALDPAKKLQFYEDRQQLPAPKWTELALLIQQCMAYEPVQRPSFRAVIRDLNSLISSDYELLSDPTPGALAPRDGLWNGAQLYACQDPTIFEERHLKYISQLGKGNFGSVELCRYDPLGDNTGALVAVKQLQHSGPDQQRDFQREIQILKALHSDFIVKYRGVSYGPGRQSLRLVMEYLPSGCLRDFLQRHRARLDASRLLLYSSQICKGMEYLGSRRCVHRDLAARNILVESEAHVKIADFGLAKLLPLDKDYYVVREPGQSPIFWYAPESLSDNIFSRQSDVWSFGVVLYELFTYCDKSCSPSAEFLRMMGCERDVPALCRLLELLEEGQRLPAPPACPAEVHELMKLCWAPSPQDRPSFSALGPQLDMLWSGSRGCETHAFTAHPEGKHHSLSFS

[10] = biological target: Insulin-like growth factor 1 receptor (Homo sapiens, UniProt P08069); assay: Inhibitory concentration against IGF kinase was determined.
[11] = biological target: Hepatocyte growth factor receptor (Homo sapiens) (UniProt P08581); assay: Inhibition of Hepatocyte growth factor receptor at 30 uM; assay type: cell-based
[12] = biological target: T3, Tyrosine-protein kinase ZAP-70 (Homo sapiens) (UniProt P43403); assay: Inhibition of Zeta-chain (TCR) associated protein kinase 70kDa, Zap70 at 10 uM
T3 sequence (whole entry): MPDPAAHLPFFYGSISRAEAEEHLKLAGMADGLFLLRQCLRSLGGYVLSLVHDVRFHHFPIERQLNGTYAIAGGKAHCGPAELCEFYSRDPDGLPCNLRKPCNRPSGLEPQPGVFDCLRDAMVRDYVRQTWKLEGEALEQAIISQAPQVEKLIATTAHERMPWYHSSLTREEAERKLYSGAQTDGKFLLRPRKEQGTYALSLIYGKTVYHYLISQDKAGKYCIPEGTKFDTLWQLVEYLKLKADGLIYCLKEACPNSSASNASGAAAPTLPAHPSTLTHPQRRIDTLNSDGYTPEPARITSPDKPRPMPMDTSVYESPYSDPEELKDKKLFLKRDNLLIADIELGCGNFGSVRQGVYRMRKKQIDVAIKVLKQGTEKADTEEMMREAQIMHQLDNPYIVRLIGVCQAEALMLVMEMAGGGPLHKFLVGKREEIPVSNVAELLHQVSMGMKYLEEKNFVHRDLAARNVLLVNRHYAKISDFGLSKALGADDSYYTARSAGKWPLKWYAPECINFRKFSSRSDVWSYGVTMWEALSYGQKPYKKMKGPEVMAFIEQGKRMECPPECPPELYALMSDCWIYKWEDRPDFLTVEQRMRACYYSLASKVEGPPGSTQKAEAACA

[13] = biological target: Tyrosine-protein kinase SYK (Homo sapiens) (UniProt P43405); assay: Inhibition of Syk tyrosine kinase at 10 uM
[14] = Inhibition of Collagen production; assay type: functional
[15] = biological target: Macrophage colony-stimulating factor 1 receptor (Homo sapiens) (UniProt P07333); assay: Inhibition of Colony stimulating factor 1 receptor at 30 uM
[16] = biological target: Tyrosine-protein kinase JAK2 (Homo sapiens, UniProt O60674); assay: Inhibition of Janus kinase 2
[17] = biological target: Vascular endothelial growth factor receptor (Homo sapiens) (UniProt P17948+P35916+P35968); assay: Inhibition of VEGF receptor kinase at 30 uM; assay type: protein assay
[18] = % Bioavailability after 1 day of the drug administration in rats; assay type: ADME, organism-based; conditions: rat, in vivo
[19] = biological target: Protein kinase C (PKC) (Homo sapiens) (UniProt O94806+P41743+P17252+P05129+Q05655+P05771+Q05513+Q02156+P24723+Q15139+Q04759); assay: Inhibition of Protein kinase C at 100 uM; assay type: protein assay

Sequence of Vascular endothelial growth factor receptor (Homo sapiens) (P17948 whole entry, looked up): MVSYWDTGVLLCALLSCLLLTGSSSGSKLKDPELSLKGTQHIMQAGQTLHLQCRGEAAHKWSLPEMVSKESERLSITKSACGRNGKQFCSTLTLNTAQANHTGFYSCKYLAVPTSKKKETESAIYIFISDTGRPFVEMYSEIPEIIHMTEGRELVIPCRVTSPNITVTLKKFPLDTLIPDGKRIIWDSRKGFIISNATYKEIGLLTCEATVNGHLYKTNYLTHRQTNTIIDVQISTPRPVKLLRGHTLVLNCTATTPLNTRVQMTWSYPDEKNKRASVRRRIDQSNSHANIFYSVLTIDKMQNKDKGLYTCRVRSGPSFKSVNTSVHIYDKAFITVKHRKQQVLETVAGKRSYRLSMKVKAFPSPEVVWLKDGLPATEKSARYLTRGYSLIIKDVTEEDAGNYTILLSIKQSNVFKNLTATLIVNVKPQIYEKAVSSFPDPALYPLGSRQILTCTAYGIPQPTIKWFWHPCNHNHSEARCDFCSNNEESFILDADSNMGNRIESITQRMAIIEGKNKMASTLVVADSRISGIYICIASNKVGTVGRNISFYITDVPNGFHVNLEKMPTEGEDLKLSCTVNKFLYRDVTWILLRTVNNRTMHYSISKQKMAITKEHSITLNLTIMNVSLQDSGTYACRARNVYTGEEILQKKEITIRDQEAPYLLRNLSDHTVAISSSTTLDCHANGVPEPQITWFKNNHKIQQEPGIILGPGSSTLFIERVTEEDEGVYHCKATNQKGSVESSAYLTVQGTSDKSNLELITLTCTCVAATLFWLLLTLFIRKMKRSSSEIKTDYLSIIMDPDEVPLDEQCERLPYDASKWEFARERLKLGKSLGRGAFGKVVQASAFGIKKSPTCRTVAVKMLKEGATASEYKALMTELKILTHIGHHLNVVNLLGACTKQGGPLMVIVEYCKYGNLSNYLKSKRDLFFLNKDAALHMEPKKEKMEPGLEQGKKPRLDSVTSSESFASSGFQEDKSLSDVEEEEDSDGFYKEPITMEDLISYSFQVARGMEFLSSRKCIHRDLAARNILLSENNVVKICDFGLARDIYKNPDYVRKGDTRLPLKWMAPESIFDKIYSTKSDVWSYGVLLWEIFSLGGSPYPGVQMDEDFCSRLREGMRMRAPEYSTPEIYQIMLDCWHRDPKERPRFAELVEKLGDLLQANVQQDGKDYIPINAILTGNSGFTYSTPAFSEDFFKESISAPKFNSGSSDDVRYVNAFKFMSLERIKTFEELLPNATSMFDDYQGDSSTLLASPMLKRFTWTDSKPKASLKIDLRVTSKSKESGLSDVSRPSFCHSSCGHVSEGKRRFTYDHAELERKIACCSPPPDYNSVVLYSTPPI
Sequence of Vascular endothelial growth factor receptor (Homo sapiens) (P35916 whole entry, looked up): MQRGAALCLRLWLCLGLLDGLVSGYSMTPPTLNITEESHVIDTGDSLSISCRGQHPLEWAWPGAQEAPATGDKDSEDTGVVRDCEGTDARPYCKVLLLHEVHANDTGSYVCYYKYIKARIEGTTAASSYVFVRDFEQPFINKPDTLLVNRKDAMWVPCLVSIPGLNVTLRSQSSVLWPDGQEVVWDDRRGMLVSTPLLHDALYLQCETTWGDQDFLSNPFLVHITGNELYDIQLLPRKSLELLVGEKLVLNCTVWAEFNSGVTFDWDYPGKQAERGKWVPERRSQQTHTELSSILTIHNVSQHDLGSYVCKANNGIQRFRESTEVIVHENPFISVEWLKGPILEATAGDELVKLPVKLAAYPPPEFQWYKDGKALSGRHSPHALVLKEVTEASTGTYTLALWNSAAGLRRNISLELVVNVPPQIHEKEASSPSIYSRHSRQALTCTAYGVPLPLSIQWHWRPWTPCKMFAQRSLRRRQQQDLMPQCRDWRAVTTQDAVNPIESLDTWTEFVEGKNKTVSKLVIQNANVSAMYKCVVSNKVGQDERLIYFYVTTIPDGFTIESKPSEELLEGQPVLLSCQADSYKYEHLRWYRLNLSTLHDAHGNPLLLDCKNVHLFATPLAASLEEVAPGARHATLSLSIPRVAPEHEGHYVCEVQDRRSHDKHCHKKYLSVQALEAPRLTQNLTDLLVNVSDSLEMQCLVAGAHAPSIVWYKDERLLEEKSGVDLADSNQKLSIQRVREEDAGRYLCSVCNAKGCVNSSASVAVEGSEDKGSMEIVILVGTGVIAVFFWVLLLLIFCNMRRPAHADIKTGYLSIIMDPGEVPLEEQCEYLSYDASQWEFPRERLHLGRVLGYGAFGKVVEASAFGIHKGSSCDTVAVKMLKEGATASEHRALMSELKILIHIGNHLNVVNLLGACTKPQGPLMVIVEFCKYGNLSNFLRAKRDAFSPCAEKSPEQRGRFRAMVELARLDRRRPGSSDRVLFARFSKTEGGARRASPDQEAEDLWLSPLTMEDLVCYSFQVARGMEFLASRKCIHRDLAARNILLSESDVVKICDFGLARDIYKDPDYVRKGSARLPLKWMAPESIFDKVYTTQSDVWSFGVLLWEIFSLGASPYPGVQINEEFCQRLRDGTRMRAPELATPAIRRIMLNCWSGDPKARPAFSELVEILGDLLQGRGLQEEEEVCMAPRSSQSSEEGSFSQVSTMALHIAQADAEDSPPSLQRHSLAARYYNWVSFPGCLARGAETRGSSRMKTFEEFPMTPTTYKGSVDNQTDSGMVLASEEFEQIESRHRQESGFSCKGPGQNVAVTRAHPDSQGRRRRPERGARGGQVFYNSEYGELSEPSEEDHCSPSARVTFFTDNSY
Sequence of Vascular endothelial growth factor receptor (Homo sapiens) (P35968 whole entry, looked up): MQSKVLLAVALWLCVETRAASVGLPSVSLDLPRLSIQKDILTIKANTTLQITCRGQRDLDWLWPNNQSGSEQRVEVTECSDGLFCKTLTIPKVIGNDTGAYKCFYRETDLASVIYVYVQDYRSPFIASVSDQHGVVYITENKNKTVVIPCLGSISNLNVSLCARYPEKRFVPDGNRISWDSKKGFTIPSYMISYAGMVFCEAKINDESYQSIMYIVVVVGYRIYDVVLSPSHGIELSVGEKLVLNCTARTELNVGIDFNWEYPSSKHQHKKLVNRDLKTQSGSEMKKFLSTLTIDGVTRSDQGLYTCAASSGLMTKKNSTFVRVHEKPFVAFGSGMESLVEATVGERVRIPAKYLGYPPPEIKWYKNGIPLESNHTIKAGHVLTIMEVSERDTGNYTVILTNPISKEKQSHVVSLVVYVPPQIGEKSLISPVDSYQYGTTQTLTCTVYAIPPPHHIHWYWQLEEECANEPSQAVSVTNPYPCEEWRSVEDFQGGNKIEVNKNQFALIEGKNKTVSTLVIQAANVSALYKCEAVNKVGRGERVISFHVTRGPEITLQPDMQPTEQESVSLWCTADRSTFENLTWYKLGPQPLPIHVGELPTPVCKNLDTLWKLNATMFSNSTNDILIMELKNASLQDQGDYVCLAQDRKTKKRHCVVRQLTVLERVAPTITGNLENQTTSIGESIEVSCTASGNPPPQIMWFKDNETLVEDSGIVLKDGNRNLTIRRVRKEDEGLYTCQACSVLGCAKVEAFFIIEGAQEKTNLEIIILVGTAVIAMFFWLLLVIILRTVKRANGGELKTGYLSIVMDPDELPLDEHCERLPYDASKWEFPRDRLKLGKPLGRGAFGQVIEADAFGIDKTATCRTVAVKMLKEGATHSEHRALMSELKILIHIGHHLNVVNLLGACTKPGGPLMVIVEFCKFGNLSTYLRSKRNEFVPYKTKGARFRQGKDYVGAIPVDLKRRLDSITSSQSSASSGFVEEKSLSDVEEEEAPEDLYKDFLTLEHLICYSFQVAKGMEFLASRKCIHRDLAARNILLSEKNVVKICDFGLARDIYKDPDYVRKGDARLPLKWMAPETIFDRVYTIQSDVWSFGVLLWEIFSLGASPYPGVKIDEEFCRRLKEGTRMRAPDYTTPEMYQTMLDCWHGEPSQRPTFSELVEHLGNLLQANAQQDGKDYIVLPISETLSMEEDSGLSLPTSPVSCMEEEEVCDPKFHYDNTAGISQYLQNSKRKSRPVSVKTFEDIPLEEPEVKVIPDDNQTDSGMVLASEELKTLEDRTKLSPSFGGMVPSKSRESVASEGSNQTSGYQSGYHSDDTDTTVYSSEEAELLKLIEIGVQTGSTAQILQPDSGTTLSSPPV
Sequence of Macrophage colony-stimulating factor 1 receptor (Homo sapiens) (P07333 whole entry): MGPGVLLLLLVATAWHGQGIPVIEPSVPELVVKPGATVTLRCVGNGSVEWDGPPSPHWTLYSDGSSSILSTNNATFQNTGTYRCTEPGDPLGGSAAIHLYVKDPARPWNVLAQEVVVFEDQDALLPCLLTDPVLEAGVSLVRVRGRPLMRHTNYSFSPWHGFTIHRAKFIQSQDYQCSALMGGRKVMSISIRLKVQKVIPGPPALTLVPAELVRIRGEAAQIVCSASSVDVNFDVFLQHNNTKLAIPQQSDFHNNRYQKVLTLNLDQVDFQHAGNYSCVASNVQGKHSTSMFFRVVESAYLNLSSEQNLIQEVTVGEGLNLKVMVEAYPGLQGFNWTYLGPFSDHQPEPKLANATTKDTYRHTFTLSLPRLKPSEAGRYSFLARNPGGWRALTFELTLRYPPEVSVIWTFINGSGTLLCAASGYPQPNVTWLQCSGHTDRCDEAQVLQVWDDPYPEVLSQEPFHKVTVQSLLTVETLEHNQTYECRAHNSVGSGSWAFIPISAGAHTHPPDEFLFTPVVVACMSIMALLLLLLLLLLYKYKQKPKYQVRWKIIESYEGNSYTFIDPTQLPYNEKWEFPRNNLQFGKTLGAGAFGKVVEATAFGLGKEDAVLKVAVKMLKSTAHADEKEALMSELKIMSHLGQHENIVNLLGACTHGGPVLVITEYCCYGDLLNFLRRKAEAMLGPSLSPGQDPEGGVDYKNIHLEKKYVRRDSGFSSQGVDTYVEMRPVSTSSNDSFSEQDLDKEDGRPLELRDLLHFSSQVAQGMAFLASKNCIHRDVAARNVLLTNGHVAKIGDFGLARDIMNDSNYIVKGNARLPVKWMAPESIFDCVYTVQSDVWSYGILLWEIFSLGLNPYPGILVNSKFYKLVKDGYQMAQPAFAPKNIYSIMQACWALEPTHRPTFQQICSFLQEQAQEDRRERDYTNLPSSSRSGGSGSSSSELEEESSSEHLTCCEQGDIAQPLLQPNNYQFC

## COc1cc2ncc(N[C@H]3CC[C@H](C(=O)OC)CC3)nc2cc1OC
[1]
  IC50: 345 nM

## COc1cc2ncc(N3C(=O)C4CCC3CC4)nc2cc1OC
[2]
  inhibition: 14%

## COc1cc2ncc(N[C@H]3CC[C@@H](O)[C@H](C)C3)nc2cc1OC
HASMC
  IC50: > 10000 nM
[3]
  inhibition: 5%

## COc1cc2ncc(NC3CCCC(N)C3)nc2cc1OC (stereo not drawn)
[3]
  inhibition: -9%

## COc1cc2cc(-c3ccsc3)cnc2cc1OC
[4]
  bioavailability: 49%
[5]
  bioavailability: 21%

## COc1cc2ncc(N[C@H]3CC[C@H](O)CC3)nc2cc1OC
[6]
  bioavailability: 72%
[7]
  inhibition: 3%
[8]
  IC50: > 50 µM
[9]
  IC50: > 50 µM
[10]
  IC50: > 10 µM
[11]
  inhibition: 17%
[12]
  inhibition: 0%
[13]
  inhibition: 54%
[14]
  IC50: 389 nM
[15]
  inhibition: 2%
[16]
  IC50: > 50 µM
[17]
  inhibition: 0%
[18]
  bioavailability: 82%
[19]
  inhibition: 7%

## COC(=O)C1CCC(Nc2cnc3cc(OC)c(OC)cc3n2)CC1 (stereo not drawn)
[1]
  IC50: 49 nM

## COc1cc2ncc(NC3CCC(C(=O)N4CCN(C)CC4)CC3)nc2cc1OC (stereo not drawn)
[3]
  inhibition: 10%

## COc1cc2ncc(N[C@@H]3CC[C@H](O)[C@@H](C)C3)nc2cc1OC
HASMC
  IC50: 134 nM
[1]
  IC50: 18 nM

## COc1cc2ncc(N[C@H]3CC[C@@H](C(=O)OC)CC3)nc2cc1OC
[1]
  IC50: 28 nM

## COc1cc2ncc(NC3CCC(C(=O)O)CC3)nc2cc1OC (stereo not drawn)
[3]
  inhibition: 15%

## COc1cc2ncc(N[C@@H]3CC4CC3C[C@H]4O)nc2cc1OC (stereo partly drawn)
HASMC
  IC50: 164 nM
[1]
  IC50: 24 nM

## COc1cc2ncc(NC3CCCCC3)nc2cc1OC
[4]
  bioavailability: 17%
[5]
  bioavailability: 16%

## CNC(=O)C1CCC(Nc2cnc3cc(OC)c(OC)cc3n2)CC1 (stereo not drawn)
[1]
  IC50: 3100 nM

## COc1cc2ncc(NC3CCC(C(N)=O)CC3)nc2cc1OC (stereo not drawn)
[1]
  IC50: 930 nM
